# Results: US20240216369A1, “THE USE OF A SPLICING MODULATOR FOR A TREATMENT SLOWING PROGRESSION OF HUNTINGTON'S DISEASE” (Novartis AG, priority 2019, published 2024)
# “Also recorded” adds a separate entry of the source.
# System: total HTT transcript
# Assay: Repeat oral dosing in BacHD mice: total HTT transcript in blood
# Type: in vivo
# Settings: 12 or 24 mg/kg oral, thrice weekly for three weeks; listed as branaplam
# Protocol: For the repeat dosing study, twenty-four BacHD mice (FVB/N-Tg(HTT*97Q)IXwy/J transgenic mice—Jackson Laboratories) were used for the experiment. Animal protocols were approved by the Children's Hospital of Philadelphia Institutional Animal Care and use Committee. Mice were housed in a temperature-controlled environment on a 12-h light/dark cycle. Food and water were provided ad libitum.
# For the repeat dosing study, branaplam or vehicle was administered by oral gavage 3 times a week for 3 consecutive weeks. Mice were divided in 4 groups (n=6 mice/group) and treated with branaplam (12 mg/kg—1 group, or 24 mg/kg—2 groups), or vehicle (1 groups) as control. […] The amount of branaplam or vehicle administrated to each mouse was based on the weight recorded the day of dosing. […]
# RNA from blood was extracted using PAXgene blood RNA kit (Qiagen) according to manufacturer protocol. The RNA was quantified by Nanodrop 2000 (Thermo Scientific). cDNAs were synthesized from 140-400 ng RNA using Maxima First strand cDNA synthesis kit using a mix of oligo dT and random hexamers (Thermo Scientific) in 20 uL reaction at 25° C. for 10 min, 50° C. for 15 min then 85° C. for 5 min. Quantitative PCR was performed using Taqman Fast Advanced master mix (Thermo Scientific) in 20 uL with 4 uL of cDNA reaction and primers specific for each genes. […]
smiles,measurement,value
"CC1(C)CC(Oc2ccc(-c3ccc(-c4cn[nH]c4)cc3O)nn2)CC(C)(C)N1 [Compound 18, 5-(1H-pyrazol-4-yl)-2-(6-((2,2,6,6-tetramethylpiperidin-4-yl)oxy)pyridazin-3-yl)phenol]",total HTT transcript in blood,robust lowering; also recorded: lowers
